Reference: patent US4863914A, “Penem derivatives” (Farmitalia Carlo Erba, priority 1985, dated 1989)
In brackets after ≈: the same amount, converted by molar mass. Read-outs that look alike come from different tables or passages of the source.

Tests used:
[1] = test system: Pseudomonas aeruginosa 2598; test: In-vitro antibacterial activity, agar dilution technique; assay type: cell-based
Excerpt: (§1) In-Vitro Antibacterial Activity (γ/ml)
(§2) Against Gram-positive And Gram-negative bacteria
(§3) As Determined By The Agar Dilution Technique

K. aerogenes 1082 E = test: as above; assay type: cell-based; details: Klebsiella aerogenes
Excerpt: as §1, §2, §3

P. rettgeri ATCC 9250 = test: as above; assay type: cell-based; details: Providencia rettgeri, ATCC9250
Excerpt: as §1, §2, §3

[2] = test system: E. coli 026:B6 cef R (IV); test: as above; assay type: cell-based; details: Escherichia coli
Excerpt: as §1, §2, §3

[3] = test system: Proteus morganii ATCC 25830; test: as above; assay type: cell-based; details: Morganella morganii, ATCC25830
Excerpt: as §1, §2, §3

Escherichia coli 026:B6 = test: as above; assay type: cell-based
Excerpt: as §1, §2, §3

[4] = test system: Staphylococcus aureus Smith; test: as above; assay type: cell-based
Excerpt: as §1, §2, §3

S. Epidermidis = test: as above; assay type: cell-based; details: Staphylococcus epidermidis
Excerpt: as §1, §2, §3

S. pyogenes ATCC 12384 = test: as above; assay type: cell-based; details: Streptococcus pyogenes
Excerpt: as §1, §2, §3

[5] = test system: Klebsiella aerogenes 1522 E; test: as above; assay type: cell-based
Excerpt: as §1, §2, §3

[6] = test system: Streptococcus faecalis (4 Strains); test: as above; assay type: cell-based; details: Enterococcus faecalis
Excerpt: as §1, §2, §3

S. Aureus 209 P = test: as above; assay type: cell-based; details: Staphylococcus aureus
Excerpt: as §1, §2, §3

[7] = test system: Serratia marcescens ATCC 2902; test: as above; assay type: cell-based
Excerpt: as §1, §2, §3

[8] = test system: Citrobacter Freundii ATCC 8090; test: as above; assay type: cell-based; details: ATCC8090
Excerpt: as §1, §2, §3

[9] = Plasma half-life after a single intravenous dose in the mouse; assay type: in vivo; details: 10 mg/kg, single intravenous dose 10 mg/kg, two compartments open model
Method: | ^(1) Determined after a single intravenous dose (10 mg/kg) in the | mouse; the plasma concentration vs. time data were best described | according to a two compartments open model with the tabulated

[10] = test system: Klebsiella pneumoniae FI 5724; test: Experimental infections in mice (intraperitoneal); assay type: in vivo; details: FI5724, 6 h, K. pneumoniae FI 5724, intraperitoneal infection in mice, 3 × LD50 challenge, treatments at 30, 90, 360 minutes, read-out: ED50 (cumulative dose)
Method: (§4) ^(2) Intraperitoneal infection in mice with a 3 × LD50
(§5) challenge; treatments at 30 minutes after infection for S. aureus and 30,
(§6) 90, 360 minutes for E. coli and K. pneumoniae.

[11] = test system: Staphylococcus aureus Smith; test: Experimental infections in mice (intraperitoneal); assay type: in vivo; details: 0.5 h, S. aureus Smith, intraperitoneal infection in mice, 3 × LD50 challenge, treatment at 30 minutes after infection, read-out: ED50 (cumulative dose)
Method: as §4, §5, §6

Escherichia coli G = test: Experimental infections in mice (intraperitoneal); assay type: in vivo; details: 6 h, E. coli G, intraperitoneal infection in mice, 3 × LD50 challenge, treatments at 30, 90, 360 minutes, read-out: ED50 (cumulative dose)
Method: as §4, §5, §6

[12] = ATCC12384, S. pyogenes ATCC 12384, agar dilution technique, read-out: In-Vitro Antibacterial Activity

Row | Structure (SMILES) | MIC [1] [µg/mL] | MIC (K. aerogenes 1082 E) [µg/mL] | MIC (P. rettgeri ATCC 9250) [µg/mL] | MIC [2] [µg/mL] | MIC [3] [µg/mL] | MIC (Escherichia coli 026:B6) [µg/mL] | MIC [4] [µg/mL] | MIC (S. Epidermidis) [µg/mL] | MIC [5] [µg/mL] | MIC [6] [µg/mL] | MIC (S. Aureus 209 P) [µg/mL] | MIC (S. pyogenes ATCC 12384; [12]) [µg/mL] | MIC [8] [µg/mL] | further results
1 | CO/N=C(\C(=O)N[C@@H]1C(=O)N2C(C(=O)O)=C(COC(C)=O)CS[C@H]12)c1csc(N)n1 [Cefotaxime] | 25 (≈ 54.9 µM) | 6.25 (≈ 13.7 µM) | 0.018 (≈ 0.0395 µM) | 1.25 (≈ 2.74 µM) | 0.037 (≈ 0.0812 µM) | 0.38 (≈ 0.834 µM) | 0.77 (≈ 1.69 µM) | 6.25 (≈ 13.7 µM) | 0.095 (≈ 0.209 µM) | 10 (≈ 22 µM) | 1.56 (≈ 3.43 µM) |  |  | MIC (S. pyogenes ATCC 12384; ATCC12384, read-out: In-Vitro Antibacterial Activity): 1.25 µg/mL (≈ 2.74 µM)
2 | C[C@@H](O)[C@H]1C(=O)N2C(C(=O)[O-])=C(c3ccc(C[n+]4ccccc4)cc3)S[C@H]12 [Compound 5, (5R,6S)-6-[(1R)-hydroxyethyl]-2-[4-(pyridiniomethyl)phenyl]penem-3-carboxylate] | 25 (≈ 65.4 µM) | 0.38 (≈ 0.994 µM) | 0.38 (≈ 0.994 µM) | 0.38 (≈ 0.994 µM) | 0.38 (≈ 0.994 µM) | 0.19 (≈ 0.497 µM) | 0.011 (≈ 0.0288 µM) | 0.19 (≈ 0.497 µM) | 0.38 (≈ 0.994 µM) | 0.06 (≈ 0.157 µM) | 0.005 (≈ 0.0131 µM) | 0.011 (≈ 0.0288 µM) | 0.19 (≈ 0.497 µM) | MIC ([7]; ATCC2902, Serratia marcescens ATCC 2902, agar dilution technique, read-out: In-Vitro Antibacterial Activity): 0.76 µg/mL (≈ 1.99 µM); half-life ([9]; read-out: Plasma half-life t1/2 α): 5 min; half-life ([9]; read-out: Plasma half-life t1/2 β): 15 min; ED50 [10]: 0.8 mg/kg; ED50 [11]: 0.06 mg/kg; ED50 (Escherichia coli G): 0.5 mg/kg
3 | CC(=O)OCC1=C(C(=O)O)N2C(=O)C(C(C)O)C2S1 (stereo not drawn) [FCE 21420] | 100 (≈ 348 µM) | 0.76 (≈ 2.65 µM) | 1.52 (≈ 5.29 µM) | 3.12 (≈ 10.9 µM) | 1.52 (≈ 5.29 µM) | 0.76 (≈ 2.65 µM) | 0.046 (≈ 0.16 µM) | 0.76 (≈ 2.65 µM) | 1.55 (≈ 5.4 µM) | 0.1 (≈ 0.348 µM) | 0.046 (≈ 0.16 µM) | 0.046 (≈ 0.16 µM) | 1.52 (≈ 5.29 µM) | MIC ([7]; Serratia marcescens, ATCC2902, read-out: In-Vitro Antibacterial Activity): 3.12 µg/mL (≈ 10.9 µM)
